From patent EP0108854A1, “Drug for stimulating hepatic cell homeostasis and for restoring the functional capacity of the hepatocytes” (ARCONTHORN LIMITED, priority 1982, dated 1984) come the findings set out here.

The subject of data set [1] is rats fed with Nath diet. The experiment in a line: Nath diet experiments in the same manner, comparison with other drugs at present in use (25th, 35th, 45th day). To be noted: for increase in cholesteraemia: aminoethanethiosulphonic acid 100 mg/kg, phosphorylcholine dose not stated; for increase in triglyceridemia: Nath diet alone 100%. Format: in vivo. As to the method: Experiments were carried out in the same manner as explained above with other drugs at present in use and, more particularly, phosphorylcholine (2 doses/25 and 50 mg/kg), sillimarine (Legalon, 70 mg/kg), S-adenosyl-1-methionine (Samyr) 25 mg/kg.
In rats fed solely with the Nath diet, the increase is, however, 100%. Among the control drugs, only phosphorylcholine (50 mg/kg) achieves a slight reduction (-20%) relative to the increase observed at the end of the period with the atherogenic diet. • - as regards the cholesteraemia the protective action shown by the drug of the invention was significant. Indeed, in rats fed with the drug phosphorylcholine,a 300% increase was found after 25 days and 320% and 410% increases respectively were found on the 35th and 45th days of feeding while in rats fed with aminoethanethiosulphonic acid (100mg/kq) the increase in cholesteraemia was only 35% on the 25th and on the 35th days. On the 45th day the increase was 50%.

Data set [2] deals with liver damage in rats induced by allyl alcohol. Put plainly: Activity against liver damage in rats induced by allyl alcohol. It counts as in vivo. As for the experimental part: Experiments were carried out on the activity of the drug of this invention on liver damage in rats induced by allyl alcohol. This damage was evaluated by means of the weight of the liver, the quantity of lipids in the tissue itself and tHe excretion of BSP in the bile, as well as the changes in the GOT, GPT and the alkaline phosphatase levels in the blood.
The respective administrations to the rats were carried out intraperitoneally for 4 days. From the data in Table III it is seen that the weight of the rats'livers increased from […] in rats poisoned with allyl alcohol while the increase was only up to 5.30 mg in rats fed intraperitoneally with allyl alcohol and aminoethanethiosulphonic acid (drug of the invention). When allyl alcohol and the drug known by the name Thiola (100mg/^kg/day) was administered to the rats the liver weight increased to about 5.85 mg.

For data set [3], the system named is rats fed with Nath diet. Put plainly: Antidyslipaemic effect in rats fed with Nath diet for 45 days (evaluations on 28th and 45th day). It counts as in vivo, female Wistar rats. To be noted: for blood triglyceride level: 28th day of treatment, aminoethanethiosulphonic acid dose printed as 10 mg/kg/day, tiadenol 100 mg/kg/day (Group C); for increase in pyruvic transaminase (GPT) level compared with the controls: Nath diet alone 60%; for increase in glutamic oxaloacetic transaminase (GOT) level compared with the controls: Nath diet alone 109%. As for the experimental part: The aminoethanethiosulphonic acid, which constitutes the drug of this invention was tested experimentally on female Wistar rats to establish its antidyslipaemic effect in comparison with drugs already in use therapeutically. For this experiment, the rats were divided into five groups of five rats which were fed in accordance with the following scheme: • GROUP "A": rats fed with a normal diet of nutritive pellets having the following composition: Composition of the nutritive pellets: [formula] with the addition of vitamins (A-D3-E-C), NaCl, CaCO3 and spring water at will. • GROUP "B": rats fed with Nath diet (Nath et al. 1959 - Journal of Nutrition, 67-289). • GROUP "C": rats fed with a Nath diet incorporating the drug tiadenol (1.25 q/kg)such that the rats could take up the drug in quantities of 100 mg/kg/day. • GROUP D: rats fed with a Nath diet incorporating the drug of the invention (1.25 g/kg of aminoethanethiosulphonic acid) such that the rats could take up the drug in quantities of 100 mg/kg/day. • GROUP"E":rats fed with a Nath diet incorporating the drug of the invention (aminoethanethiosulphonic acid) in quantities of 2.5 g/kg, so that the rats could take up the drug in quantities of 200 mg/kg/day.
The experiments were carried out over a period of 45 days. On the 28th day of treatment, the cholesteraemia and the blood triglyceride level of the rats were measured.
On the 45th day from the start of the treatment, however a whole series of systematic weight and hematochemical evaluations was carried out in accordance with the following scheme: • - liver weight/body weight percentage ratio • - ratio of the weight of the liver when removed/dry weight of the liver • - cholesteraemia according to the Watson method (1) • - blood triglyceride level according to the Bermryer method (2) • - blood alkaline phosphatase level (3,4) • - glutamic oxaloacetic transaminase level according to the Karmen method (5,6) • - glutamic pyruvic transaminase level according to the Wroblewski and La-Due method (7) • - total lipid content of the liver by extraction with ether, separation by decantation, evaporation of the ether part in an oven and weighing of the residue. • 1. - WATSON D. (1960) Clin. Chim. Acta, 5 : 637 • 2. - BERGMRYER H.U. (1975) Z. Klin. Chem. and Klin. Biochem.13 : 507 • 3; - Anon. (1970) Z.Klin. Chem. and Klin.Biochem 13 : 507. • 4. - Anon.(1972) Z.Klin. Chem. and Klin. Biochem 13 : 507. • 5. - KARMEN A. and coll. (1955) J. Clin. Invest. 34 : 126. • 6. - KARMEN A. (1955) J. Clin Invest. 34 : 131 • 7. - WROBLEWSKI F. and coll. (1956) Proc. Soc. exp. Biol. Med. 91 : 569.
Macroscopic and microscopic, anatomical-pathological examinations of the liver and of the thoracic aorta were carried out on all the animals, the microscopic examinations being carried out by means of preservation in formalin,enclosure and colouration with hematoxylin- eosin and selective dyes for the lipids according to the current methods.

Data set [4] concerns WISTAR RATS KEPT ON A MORRIS DIET. Put plainly: Protection in Wistar rats kept on a Morris diet for 45 days. Conditions: Morris diet 45 days; (XX) 100 mg/kg, phosphorylcholine 50 mg/kg. It counts as in vivo. As for the experimental part:
(§1) Table IV below gives data relative to the protection offered by the administration of aminoethanethiosulphonic acid (100 mg/kg/day) and a control drug (phosphoryl- , choline, 50 mg/kg/day) to groups of Wistar rats subjected to two different atherogenic diets, specifically the Morris diet and the Handler diet, for 45 days. The data, in general, substantially repeated those observed in experiments carried out on aminals subjected to the Nath diet.

A short description of data set [5]: Stability in the solid state. Format: physicochemical. Conditions: even at 50°C for very long periods of time.
Data set [6] in a line: Solubility in water. It counts as physicochemical.
For data set [7], the system named is rats fed with Nath diet. The experiment in a line: Antidyslipaemic effect in rats fed with Nath diet for 45 days (evaluations on 28th and 45th day). It counts as in vivo, female Wistar rats. To be noted: 28th day of treatment, tiadenol 100 mg/kg/day (Group C).
Data set [8] is described as follows: Toxicology, administration kept up for 180 days. Conditions: daily dose of 200 mg/kg of body weight. Format: in vivo.
In data set [9] the test system is WISTAR RATS ON A HANDLER DIET. The experiment in a line: Protection in Wistar rats on a Handler diet for 45 days. It counts as in vivo. Conditions: Handler diet 45 days; (XX) 100 mg/kg, phosphorylcholine 50 mg/kg. As to the method: as §1
The mark [10] stands for this setting: 100 mg/kg/day i.p. for 4 days, allyl alcohol 2 ml/kg p.o. 30 minutes after last administration.
Where [11] appears, read: 100 mg/kg/day i.p. for 4 days, allyl alcohol 2 ml/kg p.o. 30 minutes after last administration, listed as (XX).

On to `C[S+](CC[C@H](N)C(=O)O)C[C@H]1O[C@@H](n2cnc3c(N)ncnc32)[C@H](O)[C@@H]1O` (some centres unmarked) [Samyr, S-adenosyl-1-methionine, reference compound], for which, in data set [1] (35th day of administration), the “changes in the transaminase levels (GOT and GPT)” value is “a certain favourable action”. In addition, in data set [1] (Legalon 70 mg/kg, Samyr 25 mg/kg, noticeably less than aminoethanethiosulphonic acid), the “protective action as regards the cholesteraemia” value is on record as “a certain protective action”. Also, the “protection from the point of view of lipid infiltration” value in [1] (control drugs compared with aminoethanethiosulphonic acid) is given as “protection was found but was only half that given by the aminoethanethiosulphonic acid”.

As for `CC(S)C(=O)NCC(=O)O` (centres unmarked) [Thiola], in data set [2] (setting [10]), the “LIVER Lipids Tot.” value turned out to be 5.23 ± 0.30 mg%, the “LIVER Weight” value was “about 5.85 mg”, the “SERUM ALKALINE PHOSPHATASE” value is given as 3.13 ± 0.23 U/ml and the “SERUM BSP” value was 21.78 ± 2.99 µg/mL. In data set [2] (setting [10]), the “SERUM GOT” value was 388.0 ± 25.8 mU/ml and the “SERUM GPT” value came out at 99.4 ± 12.2 mU/ml. In addition, in data set [2] (after allyl alcohol, 100 mg/kg/day i.p.), the “protection against the increase in the total lipid content of the liver” value is “did not give any protection”.

Take `NCCS(=O)(O)=S` [aminoethanethiosulphonic acid]: in data set [1] (25th day, 100 mg/kg, Nath diet alone + 155), the “increase in the quantity of lipids in the tissue (hepatic parenchyma)” value (“increase in the quantity of lipids” below) was determined as 50%. In addition, the “increase in the quantity of lipids” value in data set [1] (25th day, 200 mg/kg, Nath diet alone + 155) is 95%. Moreover, the increase in cholesteraemia in data set [1] (25th day) is reported as 35%. The compound also came in with an increase in triglyceridemia in [1] (35th day, 100 mg/kg/day) of 15%. Moreover, the increase in triglyceridemia in [1] (35th day, 200 mg/kg/day) is listed as 40%. Besides, the increase in cholesteraemia in [1] (35th day) amounted to 35%. Further, the “increase in the quantity of lipids” value in data set [1] (45th day, 100 mg/kg, Nath diet alone + 225) stood at 98%. Moreover, the “increase in the quantity of lipids” value in data set [1] (45th day, 200 mg/kg, Nath diet alone + 225) is given as 110%. Moreover, the increase in cholesteraemia in data set [1] (45th day) is reported as 50%. The compound also displayed a blood triglyceride level in data set [3] of 31 mg%. In data set [3] (45th day, 100 mg/kg/day), the “increase in pyruvic transaminase (GPT) level compared with the controls” value is on record as 90% and the “increase in glutamic oxaloacetic transaminase (GOT) level compared with the controls” value is recorded as 23%. Besides, the “increase in the hepatic lipid infiltration compared with the control animals” value in data set [3] (45th day, 100 mg/kg/day, Nath diet alone 235%) turned out to be 117%. Further, in data set [4], the “BETALIPOPROTEINS, protection” value worked out at 45%; the “CHOLESTERAEMIA, protection” value is recorded as 60%; the “HEPATIC LIPIDS, protection” value stood at 50%; the “TOTAL BLOOD LIPIDS, protection” value amounted to 40%. For the same compound, the “stability in the solid state” value in data set [5] was “considerable stability in the solid state”. Further, the solubility in water result in data set [6] is “soluble in water”. Further, in [7], the blood cholesterol level turned out to be 129 mg%. Further, in [8], the mortality entry is listed as “did not result in any increase in mortality” and the weight curve entry is “nor any variation in the weight curve”. Moreover, in data set [9], the “CHOLESTERAEMIA, protection” value was 35%; the “HEPATIC LIPIDS, protection” value amounted to 50%; the “TOTAL BLOOD LIPIDS, protection” value worked out at 33%; the “TRIGLYCERIDEMIA, protection” value was determined as 30%. In addition, in data set [2] (setting [10]), the “LIVER Weight” value is given as 5.30, the “SERUM BSP” value worked out at 12.31 ± 0.91 µg/mL, the “SERUM GOT” value was found to be 172.0 ± 10.2 mU/ml and the “SERUM GPT” value stood at 25.9 ± 2.5 mU/ml. Besides, in data set [2] (setting [11]), the “LIVER Lipids Tot.” value was 5.08 ± 0.39 mg% and the “LIVER Weight” value was 5.30 ± 0.05. In [2] (100 mg/kg/day i.p. for 4 days, allyl alcohol 2 ml/kg p.o. 30 minutes after last administration, listed as drug of the invention), the “LIVER Lipids Tot.” value amounted to 5.08 mg%.

Regarding `C[N+](C)(C)CCOP(=O)(O)O` [phosphorylcholine, reference compound], the “reduction in triglyceridemia relative to the increase observed at the end of the period with the atherogenic diet” value in [1] (50 mg/kg) is -20%. For the same compound, the increase in cholesteraemia in data set [1] (25th day) is reported as 300%. In addition, the increase in cholesteraemia in [1] (35th day) stood at 320%. This compound also had an increase in cholesteraemia in data set [1] (45th day) of 410%. Moreover, in data set [4], the “BETALIPOPROTEINS, protection” value came to 8%; the “CHOLESTERAEMIA, protection” value is reported as 12%; the “HEPATIC LIPIDS, protection” value worked out at 12%; the “TOTAL BLOOD LIPIDS, protection” value amounted to 5%. Further, in [9], the “CHOLESTERAEMIA, protection” value is given as 15%; the “HEPATIC LIPIDS, protection” value came out at 23%; the “TOTAL BLOOD LIPIDS, protection” value is listed as 10%; the “TRIGLYCERIDEMIA, protection” value came out at 7%.

In data set [3], `OCCSCCCCCCCCCCSCCO` [tiadenol, reference compound] gave a blood triglyceride level of 44 mg%. For the same compound, in [3] (45th day, 100 mg/kg/day), the “increase in pyruvic transaminase (GPT) level compared with the controls” value came out at 100% and the “increase in glutamic oxaloacetic transaminase (GOT) level compared with the controls” value came out at 32%. The compound also returned a blood cholesterol level in [7] of 155 mg%.
